What was measured:
mu opioid receptor (rat) [1] = biological target: mu opioid receptor (rat) (UniProt P33535); assay: Log(tau/KA) transduction coefficient (log10 (M-1)); higher = more effective agonism; details: receptor: rat MOR
[2] = biological target: delta opioid receptor (rat) (UniProt P33533); assay: as above; details: receptor: rat DOR
[3] = biological target: delta opioid receptor (human) (UniProt P41143); assay: as above; details: receptor: human DOR
[4] = biological target: delta opioid receptor (rat) (UniProt P33533)
[5] = biological target: mu opioid receptor (human) (UniProt P35372); assay: Log(tau/KA) transduction coefficient (log10 (M-1)); higher = more effective agonism; details: receptor: human MOR
mu opioid receptor (rat) [6] = biological target: mu opioid receptor (rat) (UniProt P33535)

Sequence of delta opioid receptor (human) (P41143 whole entry): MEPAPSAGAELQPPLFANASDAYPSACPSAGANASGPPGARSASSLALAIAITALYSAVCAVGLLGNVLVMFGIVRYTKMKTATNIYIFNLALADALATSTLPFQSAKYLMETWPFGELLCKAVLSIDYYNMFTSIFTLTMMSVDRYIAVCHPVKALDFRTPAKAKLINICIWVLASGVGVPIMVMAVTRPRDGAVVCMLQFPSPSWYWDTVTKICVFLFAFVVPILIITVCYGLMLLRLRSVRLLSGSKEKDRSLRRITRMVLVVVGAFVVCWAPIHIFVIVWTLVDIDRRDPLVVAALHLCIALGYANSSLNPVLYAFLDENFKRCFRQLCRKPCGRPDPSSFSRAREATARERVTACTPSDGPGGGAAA
Sequence of delta opioid receptor (rat) (P33533 whole entry): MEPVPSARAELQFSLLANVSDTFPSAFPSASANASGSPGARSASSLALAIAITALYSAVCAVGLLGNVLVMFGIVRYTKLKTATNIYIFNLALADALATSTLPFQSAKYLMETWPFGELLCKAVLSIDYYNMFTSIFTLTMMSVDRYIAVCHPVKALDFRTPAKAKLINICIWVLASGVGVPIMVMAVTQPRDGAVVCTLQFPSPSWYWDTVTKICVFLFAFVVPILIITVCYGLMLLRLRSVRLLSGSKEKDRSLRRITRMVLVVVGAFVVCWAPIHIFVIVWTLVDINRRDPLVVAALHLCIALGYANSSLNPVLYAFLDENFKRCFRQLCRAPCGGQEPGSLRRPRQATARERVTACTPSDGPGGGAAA
Sequence of mu opioid receptor (rat) (P33535 whole entry): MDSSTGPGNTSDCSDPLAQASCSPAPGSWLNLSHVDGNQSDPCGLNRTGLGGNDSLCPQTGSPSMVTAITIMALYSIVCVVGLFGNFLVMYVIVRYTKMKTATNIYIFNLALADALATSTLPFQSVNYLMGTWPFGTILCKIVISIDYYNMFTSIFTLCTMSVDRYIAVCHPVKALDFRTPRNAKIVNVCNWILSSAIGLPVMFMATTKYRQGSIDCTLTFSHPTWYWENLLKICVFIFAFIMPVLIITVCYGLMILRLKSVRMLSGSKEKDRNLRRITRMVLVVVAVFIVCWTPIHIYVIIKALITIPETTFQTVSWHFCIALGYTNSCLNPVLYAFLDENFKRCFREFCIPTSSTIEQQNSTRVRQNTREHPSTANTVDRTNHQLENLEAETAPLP
Sequence of mu opioid receptor (human) (P35372 whole entry): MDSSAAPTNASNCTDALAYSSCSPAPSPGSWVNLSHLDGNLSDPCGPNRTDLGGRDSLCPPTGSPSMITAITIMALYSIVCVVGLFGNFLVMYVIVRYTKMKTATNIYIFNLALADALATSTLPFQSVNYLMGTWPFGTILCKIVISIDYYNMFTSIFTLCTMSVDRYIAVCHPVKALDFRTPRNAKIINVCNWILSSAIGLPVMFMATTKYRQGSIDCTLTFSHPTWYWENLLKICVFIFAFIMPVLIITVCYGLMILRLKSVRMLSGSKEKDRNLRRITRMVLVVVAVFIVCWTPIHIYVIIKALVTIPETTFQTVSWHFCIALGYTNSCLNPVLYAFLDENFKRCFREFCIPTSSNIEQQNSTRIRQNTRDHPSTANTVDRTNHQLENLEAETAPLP

CO[C@@]12CC[C@@]3(C[C@@H]1[C@](C)(O)C(C)(C)C)[C@H]1Cc4ccc(O)c5c4[C@@]3(CCN1CC1CC1)[C@H]2O5 [Buprenorphine]
Log(tau/KA) transduction coefficient (log10)
Details	Gαi1	Gαi2	Gαo	Kir	cAMP	βarrestine 2	βarrestine 2-GRK2	βarrestine 2-GRK5	βarrestine 2-GRK6
[2]	6.16	6.14	6.06	4.6	7.87	–	–	–	–
[3]	5.51	6.73	6.61	4.88	8.45	–	–	–	3.5
mu opioid receptor (rat) [1]	6.88	7.63	7.28	8.05	6.93	5.04	5.79	5.36	–

CO[C@@]12CC[C@@]3(C[C@@H]1[C@](C)(O)C(C)(C)C)[C@H]1Cc4ccc(O)c5c4[C@@]3(CCN1CC1CC1)[C@H]2O5 [Buprenorphine] (receptor: rat DOR)
[4]
Details	pEC50
Gαi1	7.49
Gαi2	6.88
Gαo	7.28
Kir	5.53
cAMP	7.78

C[C@@H](NC(=O)[C@@H](N)Cc1ccc(O)cc1)C(=O)NCC(=O)N(C)[C@@H](Cc1ccccc1)C(=O)NCCO [DAMGO]
mu opioid receptor (rat) [1]
Details	Log(tau/KA) transduction coefficient (log10)
Gαi1	6.18
Gαi2	7.5
Gαo	6.49
Kir	7.11
cAMP	8.44
βarrestine 1	5.59
βarrestine 2	5.51
βarrestine 2-GRK2	6.21
βarrestine 2-GRK5	6.26
βarrestine 2-GRK6	5.9

CN(C)C(=O)C(CCN1CCC(O)(c2ccc(Cl)cc2)CC1)(c1ccccc1)c1ccccc1 [Loperamide]
Log(tau/KA) transduction coefficient (log10)
Details	Gαi1	Gαi2	Gαo	Kir	cAMP	βarrestine 1	βarrestine 2	βarrestine 2-GRK2	βarrestine 2-GRK5	βarrestine 2-GRK6
[2]	4.78	5.24	5.22	5.02	5.9	3.96	4.1	4.29	4.61	4.48
[3]	4.52	5.79	5.28	5.54	7.28	4.05	4.37	4.62	4.71	4.63
mu opioid receptor (rat) [1]	7.2	8.27	7.56	6.46	7.69	6.08	5.68	6.37	6.39	6.04

CN(C)C(=O)C(CCN1CCC(O)(c2ccc(Cl)cc2)CC1)(c1ccccc1)c1ccccc1 [Loperamide] (receptor: rat DOR)
[4]
Details	pEC50
Gαi1	5.05
Gαi2	5.42
Gαo	5.51
Kir	5.23
cAMP	6.1
βarrestine 1	4.55
βarrestine 2	4.47
βarrestine 2-GRK2	4.36
βarrestine 2-GRK5	4.83
βarrestine 2-GRK6	4.54

CCC1(c2cccc(O)c2)CCCCN(C)C1 (stereo not given) [Meptazinol]
Log(tau/KA) transduction coefficient (log10)
Details	Gαi1	Gαi2	Gαo	Kir	cAMP
[5]	5.23	6.1	6.31	4.84	8.02
mu opioid receptor (rat) [1]	5.15	6.21	5.38	5.41	6.58

CCC1(c2cccc(O)c2)CCCCN(C)C1 (stereo not given) [Meptazinol] (receptor: rat MOR)
mu opioid receptor (rat) [6]
Details	pEC50
Gαi1	5.94
Gαi2	6.52
Gαo	6.28
Kir	6.08
cAMP	6.99

CSCC[C@H](NC(=O)[C@H](Cc1ccccc1)NC(=O)CNC(=O)CNC(=O)[C@@H](N)Cc1ccc(O)cc1)C(=O)O [Met-Enk]
Log(tau/KA) transduction coefficient (log10)
Details	Gαi1	Gαi2	Gαo	Kir	cAMP	βarrestine 1	βarrestine 2	βarrestine 2-GRK2	βarrestine 2-GRK5	βarrestine 2-GRK6
[2]	5.86	6.55	6.44	4.97	9.4	6.29	6.58	6.67	7.03	6.83
[3]	5.92	7.02	6.59	7.27	8.98	6.24	6.28	6.57	7.12	6.88
[5]	6.47	7.32	7.4	6.58	8.62	5.9	5.97	6.66	6.65	6.36
mu opioid receptor (rat) [1]	7.24	8.73	6.21	6.72	8.44	5.63	5.65	6.24	6.35	6.06

CN1CC[C@]23c4c5ccc(O)c4O[C@H]2[C@@H](O)C=C[C@H]3[C@H]1C5 [Morphine]
Log(tau/KA) transduction coefficient (log10)
Details	Gαi1	Gαi2	Gαo	Kir	cAMP	βarrestine 2	βarrestine 2-GRK2	βarrestine 2-GRK5	βarrestine 2-GRK6
[2]	4.41	5.31	5.14	4.79	6.68	4.16	4.24	4.53	4.2
[3]	4.26	5.75	5.24	5.05	8.19	–	–	4.04	3.94
mu opioid receptor (rat) [1]	6.9	8.35	7.99	7.44	8.08	5.69	6.29	6.37	5.35

COc1ccc2c3c1O[C@H]1C(=O)CC[C@@]4(O)[C@@H](C2)N(C)CC[C@]314 [Oxycodone]
Log(tau/KA) transduction coefficient (log10)
Details	Gαi1	Gαi2	Gαo	Kir	cAMP	βarrestine 1	βarrestine 2	βarrestine 2-GRK2	βarrestine 2-GRK5	βarrestine 2-GRK6
[2]	2.98	4.41	3.8	3.29	6.08	–	3.12	3.16	3.5	3.31
[3]	3.52	5.21	4.26	3.72	6.63	–	–	3.82	3.15	3.02
mu opioid receptor (rat) [1]	5.49	6.52	5.91	5.97	7.45	5.5	–	4.81	5.06	4.81

COc1cccc(C2(O)CCCCC2CN(C)C)c1 (stereo not given) [Tramadol]
Log(tau/KA) transduction coefficient (log10)
Details	Gαi1	Gαi2	Gαo	Kir	cAMP
[5]	3.39	4.54	4.27	3.78	6.29
mu opioid receptor (rat) [1]	2.98	4.73	3.82	3.81	5.02
